Laboratory results reported in US20090004302A1, “Methods and Therapeutic Compositions Comprising Plant Extracts for the Treatment of Cancer” (priority 2004, published 2009).
Values joined by “and” are separate entries in the source; they are usually repeats but may differ in a detail not shown here. Equal entries are not always repeated.

Assays:
[1] = tested on: LLC1 cells clone M27 lung tumour metastases; assay: Lewis lung carcinoma (LLC) model of tumour metastasis; format: in vivo, C57BL/6 mice; conditions: for Mean (SD) tumours/animal / % reduction compared to control (lung tumour metastases) / Total tumour burden (per group): Day 14
Protocol: The Lewis lung carcinoma model in C57BL/6 mice was used for this study. Lewis lung carcinoma is an aggressive, highly metastatic cell line. LLC1 cells clone M27 (3×10^5 cells, screened for mycoplasma) were injected on Day 0 into the tail vein of each mouse. The mice were divided into 7 groups and received the treatments outlined below. Oral administration of plant extracts was initiated 9 days prior to injection of LLC cells (i.e. on day-9) and continued for […] along with sub-optimal doses of cisplatin (see below). Group 1: […] Group 2: […] Group 3: […] Group 4: Therapeutic combination 1 (TC1) was administered to this group. […] Group 5: Therapeutic combination 2 (TC2) was administered to this group. […] Group 6: Therapeutic combination 3 (TC3) was administered to this group. […] Group 7: Therapeutic combination 4 (TC4) was administered to this group. […] At the end of the experiment (Day 14), the animals were humanely sacrificed, the lungs resected and fixed by direct immersion for approximately 24 hrs in Bouin's fixing media. Metastatic colonies on each lung surface of each mouse were counted by direct observation under a dissecting microscope in a blinded manner by three different investigators.

[2] = tested on: B16F10 melanoma subcutaneous tumour; assay: B16F10 melanoma model of tumour growth; format: in vivo, C57BL/6 mice; conditions: Day 14
Protocol: The B16F10 melanoma model in C57BL/6 mice was used for this study. B16F10 cells (1×10^6 cells, screened for mycoplasma) were injected subcuteanously on Day 0 on the right flank of each mouse. The mice were divided into 9 groups and received the treatments outlined below. Plant extracts A and B (see Example VI) were used in this study.
Oral administration of plant extracts was initiated 7 days prior to injection of the B16F10 cells (i.e. on day-7) and continued for […] with or without sub-optimal doses of doxorubicin (see below).
Group 1: The vehicle used for administration of the plant extracts was used as a negative control for the experiment. Group 2: Doxorubicin (2.5 mg/kg), a standard positive control in the B16F10 melanoma model at optimal dosage, was injected intraperitoneally on days 5, 9 and 13. Group 3: Doxorubicin (1 mg/kg), a sub-optimal dose in this model, was injected intraperitoneally on days 5, 9 and 13. Group 4: Therapeutic plant extract A (PA1) was administered by gavage (200 mg/kg) from days-7 to 14. Group 5: Therapeutic plant extract B (PB1) was administered by gavage (200 mg/kg) from days-7 to 14. Group 6: Therapeutic combination 5 (TC5) was administered to this group. TC5 comprised plant extract A and doxorubicin (1 mg/kg). Plant extract A was administered by gavage (200 mg/kg) from days-7 to 14 and doxorubicin was injected intraperitoneally on days 5, 9 and 13. Group 7: Therapeutic combination 6 (TC6) was administered to this group. TC6 comprised plant extract B and doxorubicin (1 mg/kg). Plant extract B was administered by gavage (200 mg/kg) from days-7 to 14 and doxorubicin was injected intraperitoneally on days 5, 9 and 13. Group 8: Therapeutic combination 7 (TC7) was administered to this group. TC7 comprised plant extract A, plant extract B and doxorubicin (1 mg/kg). […]
The subcutaneous tumour was measured on each animal with an electronic calliper starting on day 5 and repeated on days 8, 11 and 14 and the volume of tumour was calculated according to formula: […]. […]

Structure (SMILES)	Mean (SD) tumours/animal ([1]; cisplatin 2 mg/kg i.p. days 1, 4, 7, 10, 13)	% reduction compared to control (lung tumour metastases) ([1]; cisplatin 2 mg/kg i.p.)	Total tumour burden (per group) ([1]; cisplatin 2 mg/kg i.p.)	body weight of animals ([1]; cisplatin 5 mg/kg dose)	Mean (SD) tumours/animal ([1]; cisplatin 5 mg/kg i.p. days 1, 4, 7, 10, 13)	% reduction compared to control (lung tumour metastases) ([1]; cisplatin 5 mg/kg i.p.)	Total tumour burden (per group) ([1]; cisplatin 5 mg/kg i.p.)	Volume (mm^3) of tumour ([2]; doxorubicin 1 mg/kg i.p. days 5, 9, 13) [mm^3]	% growth of tumour ([2]; doxorubicin 1 mg/kg i.p.) [%]	Diameter (mm) of tumour ([2]; doxorubicin 1 mg/kg i.p.) [mm]
N.N.[Cl][Pt][Cl] [Cisplatin]	24.70	27% and 26.7%	346	sharp decrease	1.46	96% and 95.6%	21	–	–	–
COc1cccc2c1C(=O)c1c(O)c3c(c(O)c1C2=O)C[C@@](O)(C(=O)CO)C[C@@H]3O[C@H]1C[C@H](N)[C@H](O)[C@H](C)O1 [Doxorubicin]	–	–	–	–	–	–	–	2682 ± 220	247 ± 30	21.4 ± 1.1
